This note sets out measurements from US4122184A, “Benzimidazole insecticides” (priority 1977, dated 1978).

Test [1] deals with Boll Weevil. In words: Boll Weevil Test. The format is in vivo, Anthonomus grandis (Coleoptera). The following applies: 48 h. An excerpt: The procedure is identical to that employed for the Mexican bean beetle and the Southern armyworm, except that 10 adult boll weevils are placed on cotton leaves that have been dipped into formulations of the test compounds. The same rating scale is used.

The test system of test [2] is House Fly. As to the kind of experiment: Housefly (Contact) Test. The format is in vivo, Musca domestica (Diptera). Conditions: 24 h.
Test [3] deals with Alfalfa Weevil Larvae. As to the kind of experiment: Field trial, contact poison test. Type of test: in vivo. The procedure, abridged:
(§1)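 Mortality after direct spraying was scored at 24, 48 and 72 hours where applicable, using a 0–9 rating tied to 10% bands. Plants bearing insects received atomized compound at 10 psi over a range of concentrations.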

Test [4] deals with Southern Armyworm. As to the kind of experiment: Southern Armyworm Test. The format is in vivo, Prodenia eridania (Lepidoptera). Conditions: 48 h. The procedure: Ten uniform Southern armyworm larvae about 1-1.5 cm. in length, grown on Henderson lima beans, are placed on excized bean leaves in petri dishes. The bean leaves are obtained and sprayed with the insecticide in the same way as are the snap bean leaves in the Mexican bean beetle test. The reference standards in this instance are leaves sprayed with 5 ml. 100 ppm DDT solution. Mortality counts are made 48 hours after spraying and again moribund larvae are counted as dead. Missing larvae which have probably been eaten are considered alive. The same rating scale is used as in the Mexican bean beetle test.

In test [5] the test system is Boll Weevil. In words: Field trial (first summer), topical. Type of test: in vivo, Anthonomus grandis. Conditions: .078125 μg/μl. The procedure, abridged:
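Field trial from the first summer in which 1 µl of test solution holding a set number of micrograms of benzimidazole was applied topically to larvae or adult insects. Mortality at a given route and concentration was scored on a 0–9 scale.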

The test system of test [6] is Melon Aphid. In words: Melon Aphid Test. The format is in vivo, Aphis gossypii (Hemiptera). Conditions: 24 h. An excerpt: Four blue hubbard squash seeds are planted per container in vermiculite and the containers watered from the bottom. After 6 days, the two weakest plants are cut off and one cotyledon and the primary leaves are removed from each of the two remaining plants. The remaining cotyledon is infested with 100 melon aphids from a stock colony by pinning the cotyledon against an aphid-infested squash cotyledon from the colony and allowing the aphids to transfer. After transfer, the colony leaf is removed. Forty-eight hours later, the infested leaves are sprayed to wetting with formulations containing graded amounts of the insecticide using a DeVilbiss atomizer at 10 psi held at 12-15 inches from the plant. Controls consist of two infested, unsprayed squash plants and two infested plants sprayed to wetting with a formulation containing 100 ppm malathion as a reference standard. The mortality is estimated 24 hours after spraying by observation using a 10 power dissecting microscope. The same rating scale is used as before.

The subject of test [7] is House Fly. As to the kind of experiment: Housefly (Stomach) Test. Type of test: in vivo, Musca domestica (Diptera). Conditions: 24 h. The procedure:
Ten chilled house flies are taken from the rearing cage and placed in a covered petri dish. Sugar cubes treated with 0.2 ml. of a formulation containing a specified level of the insecticide are placed in the petri dish one hour after the flies have been removed from the chill room. Controls consist of sugar cubes treated with 0.2 ml. of deionized water and cubes treated with 0.2 ml. of a formulation containing 500 ppm of malathion. Mortality counts are made 24 hours later. The same rating scale is used as before.

The subject of test [8] is Potato Flea Beetle Adults. As to the kind of experiment: Field trial, contact poison test. The format is in vivo. The procedure, abridged: as §1
Test [9] concerns Tarnished Plant Bug Adults. In words: Field trial, stomach poison test. Also on record: key: mortality rating on a 0 to 9 scale. The format is in vivo. The procedure, abridged: (§2)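 Treated foliage (dipped, or sprayed at 10 psi, then dried) is offered to counted insects in dishes. Scoring of mortality uses a 0–9 scale at three time points up to 72 h.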
Test [10] relates to Unidentified Green Leafhopper. As to the kind of experiment: Field trial, stomach poison test. Type of test: in vivo. Details: key: mortality rating on a 0 to 9 scale. In a few lines:
as §2

Take “mixture of benzyl 2,6-bis(trifluoromethyl)-4-nitro-1-benzimidazolecarboxylate and benzyl 2,5-bis(trifluoromethyl)-7-nitro-1-benzimidazolecarboxylate”: the mortality rating is 4.5 in test [1] (10 ppm); 8.5 in test [1] (25 ppm); 7 (71-80) in test [1] (50 ppm); 9 (91-100) in test [1] (100 ppm); 9 (91-100) in test [1] (250 ppm); 9 (91-100) in test [1] (500 ppm). The mortality rating is 9 (91-100) in test [1] (1000 ppm); 0 (0-10) in [2] (10 ppm); 0 (0-10) in test [2] (25 ppm); 4 (41-50) in [2] (50 ppm); 5.5 in test [2] (100 ppm); 9 (91-100) in test [2] (250 ppm). Further, the mortality rating is 9 (91-100) in [2] (500 ppm); 9 (91-100) in test [2] (1000 ppm); 2 (21-30) in [4] (100 ppm); 6 (61-70) in test [4] (500 ppm); 7 (71-80) in test [4] (1000 ppm); 0 (0-10) in [6] (100 ppm). For the same compound, the mortality rating is 5 (51-60) in test [6] (250 ppm); 9 (91-100) in test [6] (500 ppm); 8 (81-90) in test [6] (1000 ppm); 0 (0-10) in test [7] (250 ppm); 4 (41-50) in test [7] (500 ppm); 9 (91-100) in test [7] (1000 ppm). The average mortality rating in test [3] (500 ppm) was determined as 4; in [3] (750 ppm) it was 4; in [3] (1000 ppm), 6. The insect mortality rating in test [5] is on record as 9 (91-100 percent mortality).
`CC(C)OC(=O)n1c(C(F)(F)F)nc2c([N+](=O)[O-])cc(C(F)(F)F)cc21` [I, isopropyl 2,6-bis(trifluoromethyl)-4-nitro-1-benzimidazolecarboxylate]: the mortality rating in [1] (25 ppm) came out at 8.5; in test [1] (50 ppm), 8.5; in [1] (100 ppm), 7.5; in [6] (50 ppm) it was 8.5; in test [6] (250 ppm), 6.5. In addition, the average mortality rating in test [8] (10 ppm) is recorded as 9 (91-100 percent mortality); in [8] (25 ppm) it was 9 (91-100 percent mortality); in [8] (50 ppm), 9 (91-100 percent mortality); in test [8] (100 ppm), 9 (91-100 percent mortality); in [8] (250 ppm), 9 (91-100 percent mortality); in test [3] (500 ppm), 1. For the same compound, the average mortality rating in [3] (750 ppm) is 2; in test [3] (1000 ppm), 1; in test [9] (10 ppm), 3; in [9] (25 ppm) it was 4; in [9] (50 ppm) it was 2; in test [10] (10 ppm), 2. Further, the average mortality rating in [10] (25 ppm) is 6; in test [10] (50 ppm), 7.
With “mixture of N,N-dimethyl-4-nitro-2,6-bis(trifluoromethyl)thio-1-benzimidazolecarboxamide and N,N-dimethyl-7-nitro-2,5-bis(trifluoromethyl)thio-1-benzimidazolecarboxamide [P]”, the mortality rating in test [1] (10 ppm) is 1.5; in [1] (25 ppm) it was 5 (51-60); in test [1] (50 ppm), 8 (81-90); in test [1] (100 ppm) it was 9 (91-100); in test [1] (250 ppm), 9 (91-100); in test [1] (500 ppm), 9 (91-100). The mortality rating was 9 (91-100) in [1] (1000 ppm); 4.0 in [2] (10 ppm); 8.5 in [2] (25 ppm); 9 (91-100) in [2] (50 ppm); 9 (91-100) in [2] (100 ppm); 9 (91-100) in [2] (250 ppm). Also, the mortality rating in test [2] (500 ppm) is given as 9 (91-100); in [2] (1000 ppm), 9 (91-100); in [4] (250 ppm), 0 (0-10); in test [4] (500 ppm), 0 (0-10); in test [4] (1000 ppm), 3.5; in test [6] (10 ppm), 0 (0-10). Further, the mortality rating is 1.5 in [6] (25 ppm); 4 (41-50) in test [6] (100 ppm); 7 (71-80) in test [6] (250 ppm); 7.5 in [6] (500 ppm); 4.5 in [6] (1000 ppm); 0 (0-10) in [7] (50 ppm). The mortality rating in test [7] (100 ppm) is on record as 3 (31-40); in test [7] (250 ppm), 7 (71-80); in test [7] (500 ppm), 9 (91-100). The insect mortality rating in [5] is listed as 9 (91-100 percent mortality).
For `O=[N+]([O-])c1cc(C(F)(F)F)cc2[nH]c(C(F)(F)Cl)nc12` [L, 2-chlorodifluoromethyl-4-nitro-6-trifluoromethylbenzimidazole], the mortality rating result in test [1] (10 ppm) is given as “.5”; in test [1] (25 ppm) it was 1.5; in test [4] (500 ppm), 1.5; in [6] (25 ppm) it was 5.5; in test [7] (50 ppm) it was “.5”. The average mortality rating in test [9] (10 ppm) is reported as 0 (0-10 percent); in [9] (25 ppm) it was 4; in [9] (50 ppm) it was 5.
As for “mixture of phenyl 2,6-bis(trifluoromethyl)-4-nitro-1-benzimidazolecarboxylate and phenyl 2,5-bis(trifluoromethyl)-1-benzimidazolecarboxylate”, the mortality rating in [1] (10 ppm) is on record as 1 (11-20); in test [1] (25 ppm), 5.5; in test [1] (50 ppm) it was 8 (81-90); in test [1] (100 ppm) it was 9 (91-100); in [1] (250 ppm), 9 (91-100); in [1] (500 ppm), 9 (91-100). The mortality rating in test [1] (1000 ppm) is 9 (91-100); in test [2] (10 ppm), 3 (31-40); in [2] (25 ppm) it was 7 (71-80); in [2] (50 ppm), 7 (71-80); in test [2] (100 ppm) it was 9 (91-100); in test [2] (250 ppm) it was 9 (91-100). Further, the mortality rating in [2] (500 ppm) is 9 (91-100); in test [2] (1000 ppm) it was 9 (91-100); in test [4] (250 ppm) it was 1 (11-20); in test [4] (500 ppm) it was 1 (11-20); in test [4] (1000 ppm), 1 (11-20); in test [6] (25 ppm) it was 0 (0-10). Also, the mortality rating is 4 (41-50) in test [6] (50 ppm); 8 (81-90) in test [6] (100 ppm); 7 (71-80) in [6] (250 ppm); 8 (81-90) in [6] (500 ppm); 6 (61-70) in test [6] (1000 ppm); 0 (0-10) in [7] (100 ppm). In [7] (1000 ppm), the mortality rating is 9 (91-100). Also, the insect mortality rating in test [5] is listed as 9 (91-100 percent mortality). The results for the average mortality rating in test [10] (10 ppm), in [10] (25 ppm) and in test [10] (50 ppm) were 0 (0-10 percent), 1 and 9 (91-100 percent mortality), respectively.
